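Each compound was tested at five concentrations against cells in 96-well plates for 48 hours. The concentration for 50% growth inhibition is given as GI50. TGI marks complete inhibition of growth.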
Columns and labels:
Assay in all cases: inhibition of tumour cell growth, NCI panel, 48 h; in the data active = GI50 below about 0.43 µM; inactive = the rest
MDA-MB-231 breast = test system: MDA-MB-231 breast
T-47D breast = test system: T-47D breast
NCI-H460 lung = test system: NCI-H460 lung
U251 CNS = test system: U251 CNS
EKVX NSCLC = test system: EKVX NSCLC
SNB-19 CNS = test system: SNB-19 CNS
SK-MEL-5 melanoma = test system: SK-MEL-5 melanoma
K-562 leukemia = test system: K-562 leukemia
RXF 393 renal = test system: RXF 393 renal
NCI-H23 lung = test system: NCI-H23 lung
PC-3 prostate = test system: PC-3 prostate
SF-539 CNS = test system: SF-539 CNS
NCI-H522 lung = test system: NCI-H522 lung
CCRF-CEM leukemia = test system: CCRF-CEM leukemia
SW-620 colon = test system: SW-620 colon
TK-10 renal = test system: TK-10 renal
HOP-62 NSCLC = test system: HOP-62 NSCLC
NCI/ADR-RES ovarian = test system: NCI/ADR-RES ovarian
MDA-MB-435 = test system: MDA-MB-435
OVCAR-8 ovarian = test system: OVCAR-8 ovarian
SK-MEL-2 melanoma = test system: SK-MEL-2 melanoma
OVCAR-3 ovarian = test system: OVCAR-3 ovarian
RPMI-8226 leukemia = test system: RPMI-8226 leukemia
SN12C renal = test system: SN12C renal
HCC-2998 colon = test system: HCC-2998 colon
DU-145 prostate = test system: DU-145 prostate
SF-268 CNS = test system: SF-268 CNS
ACHN renal = test system: ACHN renal
SNB-75 CNS = test system: SNB-75 CNS
786-0 renal = test system: 786-0 renal
OVCAR-4 ovarian = test system: OVCAR-4 ovarian
BT-549 breast = test system: BT-549 breast
MALME-3M melanoma = test system: MALME-3M melanoma
HCT-116 colon = test system: HCT-116 colon
M14 melanoma = test system: M14 melanoma
IGROV1 ovarian = test system: IGROV1 ovarian
SK-OV-3 ovarian = test system: SK-OV-3 ovarian
HT29 colon = test system: HT29 colon
UACC-257 melanoma = test system: UACC-257 melanoma
HL-60(TB) leukemia = test system: HL-60(TB) leukemia
A549 NSCLC = test system: A549 NSCLC
UO-31 renal = test system: UO-31 renal
LOX IMVI melanoma = test system: LOX IMVI melanoma
SR leukemia = test system: SR leukemia
OVCAR-5 ovarian = test system: OVCAR-5 ovarian
HS 578T breast = test system: HS 578T breast
HOP-92 NSCLC = test system: HOP-92 NSCLC
COLO 205 colon = test system: COLO 205 colon
MOLT-4 leukemia = test system: MOLT-4 leukemia
UACC-62 melanoma = test system: UACC-62 melanoma
MCF7 breast = test system: MCF7 breast
SK-MEL-28 melanoma = test system: SK-MEL-28 melanoma
SF-295 CNS = test system: SF-295 CNS
NCI-H226 lung = test system: NCI-H226 lung
KM12 colon = test system: KM12 colon
A498 renal = test system: A498 renal
HCT-15 colon = test system: HCT-15 colon

CCN1CCC(Oc2c(C#N)ncc3[nH]c4ncccc4c23)CC1
> 50 µM: TGI (MDA-MB-231 breast) | TGI (T-47D breast) | TGI (NCI-H460 lung) | TGI (U251 CNS) | TGI (EKVX NSCLC) | TGI (SNB-19 CNS) | TGI (SK-MEL-5 melanoma) | TGI (K-562 leukemia) | TGI (NCI-H23 lung) | TGI (PC-3 prostate) | TGI (NCI-H522 lung) | TGI (CCRF-CEM leukemia) | TGI (SW-620 colon) | TGI (HOP-62 NSCLC) | TGI (NCI/ADR-RES ovarian) | TGI (MDA-MB-435) | TGI (OVCAR-8 ovarian) | TGI (OVCAR-3 ovarian) | TGI (RPMI-8226 leukemia) | TGI (SN12C renal) | TGI (HCC-2998 colon) | TGI (DU-145 prostate) | TGI (SF-268 CNS) | TGI (ACHN renal) | TGI (786-0 renal) | TGI (OVCAR-4 ovarian) | TGI (MALME-3M melanoma) | TGI (HCT-116 colon) | TGI (M14 melanoma) | TGI (IGROV1 ovarian) | TGI (SK-OV-3 ovarian) | TGI (HT29 colon) | TGI (UACC-257 melanoma) | TGI (A549 NSCLC) | TGI (UO-31 renal) | TGI (LOX IMVI melanoma) | TGI (OVCAR-5 ovarian) | TGI (HS 578T breast) | TGI (HOP-92 NSCLC) | TGI (UACC-62 melanoma) | TGI (MCF7 breast) | TGI (SK-MEL-28 melanoma) | TGI (SF-295 CNS) | TGI (NCI-H226 lung) | TGI (KM12 colon) | TGI (HCT-15 colon)
21.2 µM: TGI (MOLT-4 leukemia)
inactive: GI50 (MDA-MB-231 breast) 21.5 µM | GI50 (T-47D breast) 26 µM | GI50 (NCI-H460 lung) 7.33 µM | GI50 (U251 CNS) 15.7 µM | GI50 (EKVX NSCLC) 14.5 µM | GI50 (SNB-19 CNS) 14.7 µM | GI50 (SK-MEL-5 melanoma) 7.12 µM | GI50 (K-562 leukemia) 1.75 µM | GI50 (RXF 393 renal) 0.559 µM | GI50 (NCI-H23 lung) 3.25 µM | GI50 (PC-3 prostate) 21 µM | GI50 (SF-539 CNS) 1.34 µM | GI50 (NCI-H522 lung) 15 µM | GI50 (CCRF-CEM leukemia) 1.84 µM | GI50 (SW-620 colon) 12.2 µM | GI50 (TK-10 renal) 5.21 µM | GI50 (HOP-62 NSCLC) 13.2 µM | GI50 (NCI/ADR-RES ovarian) 2.78 µM | GI50 (MDA-MB-435) 1.88 µM | GI50 (OVCAR-8 ovarian) 4.77 µM | GI50 (SK-MEL-2 melanoma) 2.48 µM | GI50 (OVCAR-3 ovarian) 2.55 µM | GI50 (RPMI-8226 leukemia) 11 µM | GI50 (SN12C renal) 14.2 µM | GI50 (HCC-2998 colon) 20.3 µM | GI50 (DU-145 prostate) 10.9 µM | GI50 (SF-268 CNS) 16.2 µM | GI50 (ACHN renal) 0.466 µM | GI50 (SNB-75 CNS) 12.9 µM | GI50 (786-0 renal) 1.71 µM | GI50 (OVCAR-4 ovarian) 7.88 µM | GI50 (BT-549 breast) 1.96 µM | GI50 (MALME-3M melanoma) 22.9 µM | GI50 (HCT-116 colon) 7.2 µM | GI50 (IGROV1 ovarian) 15.6 µM | GI50 (SK-OV-3 ovarian) 3.99 µM | GI50 (HT29 colon) 10.2 µM | GI50 (UACC-257 melanoma) 19.9 µM | GI50 (HL-60(TB) leukemia) 2.9 µM | GI50 (A549 NSCLC) 14.1 µM | GI50 (UO-31 renal) 3.94 µM | GI50 (LOX IMVI melanoma) 5.72 µM | GI50 (SR leukemia) 1.32 µM | GI50 (OVCAR-5 ovarian) 19.3 µM | GI50 (HS 578T breast) 13.1 µM | GI50 (HOP-92 NSCLC) > 50 µM | GI50 (COLO 205 colon) 5.72 µM | GI50 (MOLT-4 leukemia) 1.67 µM | GI50 (UACC-62 melanoma) 18.1 µM | GI50 (SK-MEL-28 melanoma) 16.2 µM | GI50 (SF-295 CNS) 2.04 µM | GI50 (NCI-H226 lung) 16.3 µM | GI50 (KM12 colon) 2.83 µM | GI50 (HCT-15 colon) 9.35 µM
22.3 µM: TGI (SR leukemia)
19.5 µM: TGI (COLO 205 colon)
26.9 µM: TGI (SK-MEL-2 melanoma)
4.16 µM: TGI (RXF 393 renal)
17.5 µM: TGI (HL-60(TB) leukemia)
26.2 µM: TGI (SF-539 CNS)
29.8 µM: TGI (SNB-75 CNS)
41.7 µM: TGI (TK-10 renal)
10.5 µM: TGI (A498 renal)
active: GI50 (M14 melanoma) 0.357 µM | GI50 (MCF7 breast) 0.403 µM | GI50 (A498 renal) 0.296 µM
21 µM: TGI (BT-549 breast)

Reference: PubChem BioAssay (NCI)
